# Results from US20260226031A1, “NOVEL COMPOUNDS” (NRG THERAPEUTICS LTD., priority 2023, published 2026).
# Assays:
# mPTP [1] = experiment: mPTP activity (Ca2+ retention) assay in isolated rat liver mitochondria; assay type: biochemical; settings: isolated rat liver mitochondria; Fluo5N fluorescence at 10 min after CaCl2 (75 μM) bolus; DMSO 0%, 5 μM cyclosporin A 100% inhibition
# Text: Pharmacological inhibition or modulation of the mPTP can be measured in well characterised ‘Ca^2+ retention’ assays performed in isolated mitochondria. In vitro, isolated mitochondria rapidly sequester exogenous Ca^2+ until the intramitochondrial Ca^2+ concentration reaches the threshold for mPTP activation. Once the pore is activated, mitochondrial integrity is compromised and the stored Ca^2+ is released. The distribution of Ca^2+ between extra- and intra-mitochondrial compartments can be measured in real time with the use of membrane-impermeant Ca^2+ sensitive fluorescent dyes. Depending on the configuration of the assay, inhibition or modulation of the mPTP either delays the opening of the pore or increases the concentration of Ca^2+ required to induce mPTP opening.
# MPTP activity was measured in mitochondria freshly isolated from female Sprague Dawley (250 to 300 gram) rat livers using the following method. Cervical dislocation was performed on the rat. The liver was then perfused in-situ with ~40 ml cold Dulbecco's Phosphate Buffered Saline (DPBS) prior to dissection and transferred into 30 ml Isolation Buffer (250 mM Sucrose, 10 mM KCl, 1 mM EGTA, 1 mM EDTA, 25 mM HEPES, adjusted to pH 7.5 with 1M NaOH). Each lobe of the liver was then removed from the buffer, minced using tweezers and a scalpel into ~5 mm pieces then transferred into a 50 ml Potterton dounce homogenization tube on ice containing 30 ml ice-cold centrifugation buffer (300 mM Trehalose, 25 mM HEPES, 1 mM EGTA, 1 mM EDTA, 10 mM KCl, adjusted to pH 7.5 with 1M NaOH and supplemented with 0.1% bovine serum albumin (BSA) and complete protease inhibitor cocktail (one tablet of inhibitor per 50 mls of buffer). Homogenisation was carried out using a Teflon® pestle at 1800 rpm. The slurry was centrifuged at 800 g for 10 min at 4° C., then the supernatant centrifuged at 10,000 g for 10 min. The pellet was washed once with FLIPR assay buffer (75 mM Mannitol, 25 mM Sucrose, 5 mM Potassium Phosphate Monobasic, 20 mM Tris base, 100 mM KCl, 0.1% BSA adjusted to pH 7.4 with 5M HCl) centrifuged again, then resuspended in FLIPR assay buffer to a concentration of 8.8 mg/ml protein.
# Tested compounds (10 mM stock in DMSO) were serially diluted in DMSO in half log steps to generate 10 test concentrations (final concentrations in assay 30 μM to 1 nM). An intermediate dilution of 5 μl DMSO samples into 247 μl FLIPR assay buffer was carried out prior to transfer of 5 μl into duplicate wells of a 384 well polypropylene assay plate. Control wells were 0.5% (v/v) DMSO and 5 μM cyclosporin A.
# A stock mitochondria/Fluo5N assay solution was prepared in 5.6 ml FLIPR assay buffer (at RT) supplemented with succinate disodium salt (10 mM), rotenone (1 μM), Fluo5N pentapotassium salt (2 μM) and 1 ml mitochondria suspension, then transferred (15 μl) into the assay plate containing test compounds and incubated for 10 min at RT. Assay plates were processed for fluorescence detection on either a FLIPR Tetra (Molecular Devices) or CLARIOstar (BMG) plate reader. For kinetic fluorescence detection on the FLIPR, dye fluorescence was measured every 3 sec for a total of 10 min. After 12 sec, a 2.5 μl bolus of CaCl2 (75 μM) was added from a source plate containing 675 μM CaCl2 in FLIPR assay buffer. Alternatively, the 2.5 μl addition of CaCl2 was performed using a Viaflow 384, plates were incubated at RT for 10 min, and dye fluorescence measured after 10 min on the CLARIOstar plate reader. pIC50 values for tested compounds were calculated using the fluorescence value collected at the 10 min timepoint on either plate reader, with % inhibition calculated using the DMSO control and cyclosporin A values as 0 and 100% respectively.
# mPTP [2] = experiment: mPTP activity (Ca2+ retention) assay in isolated rat brain mitochondria; assay type: biochemical; settings: isolated rat brain mitochondria; Fluo5N fluorescence at 10 min after Ca2+ (75 μM) bolus
# Protocol: MPTP activity was measured in brain mitochondria freshly isolated from female Sprague Dawley (250 to 300 gram) rats. Anaesthetised rats were perfused in-situ with ~40 ml cold Dulbecco's Phosphate Buffered Saline (DPBS), then brains dissected and transferred into 30 ml Isolation Buffer (225 mM mannitol, 75 mM sucrose, 1 mM EGTA, adjusted to pH 7.4 with 1M NaOH). The brain was minced using tweezers and a scalpel into ~5 mm pieces then transferred into a 50 ml Potterton Dounce homogenization tube on ice containing 10 ml ice-cold isolation buffer (as above with addition of Complete Protease inhibitor; 1 tablet per 50 ml buffer). Homogenisation was carried out using a Teflon® pestle at 1800 rpm. The slurry was centrifuged at 2000 g for 10 min at 4° C., then the supernatant centrifuged at 12,000 g for 9 min. The pellet was resuspended with a dounce homogeniser in isolation buffer as above but with the addition of 0.02% digitonin, centrifuged at 12,000 g for 11 min and finally resuspended in 5 ml modified isolation buffer (as above but with EGTA reduced to 0.1 mM).
# Test compounds were prepared in 384 well polypropylene assay plates as described above for the liver mitochondria assay. A stock mitochondria/Fluo5N assay solution was prepared in 5.6 ml assay buffer (120 mM mannitol, 40 mM MOPS, 5 mM KH2PO4, 60 mM KCl, 10 mM pyruvate, 2 mM malate, 2 mM MgCl2, 20 μM ADP, 1.26 μM oligomycin A, adjusted to pH 7.4) supplemented with Fluo5N pentapotassium salt (2 μM) and 1 ml mitochondria suspension, then transferred (15 μl) into the assay plate containing test compounds and incubated for 10 min at RT. Assay plates were then transferred to a FLIPR Tetra plate reader (Molecular Devices). Dye fluorescence was then measured every 3 sec for a total of 10 min.
SMILES,mPTP Rat liver pIC50* (mPTP [1]),mPTP Rat brain pIC50 (mPTP [2])
"CCC1CN(C(=O)c2cncc(=O)[nH]2)CC1c1ccccc1 (single isomer, unassigned) [Example 15d, 6-(3-ethyl-4-phenylpyrrolidine-1-carbonyl)pyrazin-2(1H)-one]",<4.52,<4.52
"O=C(c1cc(O)no1)N1CC(c2ccc(F)cc2F)C2(CCC2)C1 (single isomer, unassigned) [Example 42b, (8-(2,4-difluorophenyl)-6-azaspiro[3.4]octan-6-yl)(3-hydroxyisoxazol-5-yl)methanone]",<4.52,<4.52
"O=C(c1nccc(=O)[nH]1)N1CC(c2ccccc2)C2(CCC2)C1 (single isomer, unassigned) [Example 21b, 2-[8-phenyl-6-azaspiro[3.4]octane-6-carbonyl]-3H-pyrimidin-4-one]",<4.52,<4.52
"O=C(c1cc(O)no1)N1CC(c2ccc(F)c(F)c2)C2(CCC2)C1 (single isomer, unassigned) [Example 46b, (8-(3,4-difluorophenyl)-6-azaspiro[3.4]octan-6-yl)(3-hydroxyisoxazol-5-yl)methanone]",<4.52,7.03
"O=C(c1cc(O)ccn1)N1CC(c2ccccc2)C2(CCC2)C1 (stereo not shown) [Example 3, (4-hydroxypyridin-2-yl)(8-phenyl-6-azaspiro[3.4]octan-6-yl)methanone]",5.14,
"CC1(C)CN(C(=O)c2cncc(=O)[nH]2)CCC1c1ccccc1 (stereo not shown) [Example 9, 6-(3,3-dimethyl-4-phenylpiperidine-1-carbonyl)pyrazin-2(1H)-one]",5.28,6.61
"CC1CN(C(=O)c2cncc(=O)[nH]2)CC1c1ccccc1 (stereo not shown) [Example 13, 6-(3-methyl-4-phenylpyrrolidine-1-carbonyl)pyrazin-2(1H)-one]",4.55,
"O=C(c1cncc(O)c1)N1CC(c2ccccc2)C2(CCC2)C1 (single isomer, unassigned) [Example 1c, (5-hydroxypyridin-3-yl)(8-phenyl-6-azaspiro[3.4]octan-6-yl)methanone]",<4.52,
"Cn1nc(C(=O)N2CC(c3ccccc3)C3(CCC3)C2)[nH]c1=O (stereo not shown) [Example 5a, 2-methyl-5-(8-phenyl-6-azaspiro[3.4]octane-6-carbonyl)-2,4-dihydro-3H-1,2,4-triazol-3-one]",5.04,

# The next lines start with the values.
mPTP Rat liver pIC50* (mPTP [1]),mPTP Rat brain pIC50 (mPTP [2]),SMILES
5.57,7.37,"O=C(c1noc(=O)[nH]1)N1CC(c2ccccc2)C2(CCC2)C1 (single isomer, unassigned) [Example 34a, 3-(8-phenyl-6-azaspiro[3.4]octane-6-carbonyl)-1,2,4-oxadiazol-5(4H)-one]"
6.52,,"O=C(c1noc(=O)[nH]1)N1CC(c2cccc(F)c2)C2(CCC2)C1 (single isomer, unassigned) [Example 49a, 3-(8-(3-fluorophenyl)-6-azaspiro[3.4]octane-6-carbonyl)-1,2,4-oxadiazol-5(4H)-one]"
6.15,7.45,"O=C(c1cncc(=O)[nH]1)N1CC(c2ccc(F)c(F)c2)C2(CCC2)C1 (single isomer, unassigned) [Example 45a, 6-(8-(3,4-difluorophenyl)-6-azaspiro[3.4]octane-6-carbonyl)pyrazin-2(1H)-one]"
<4.52,<4.52,"O=C(c1cccc(=O)[nH]1)N1CC(c2ccccc2)C2(CCC2)C1 (single isomer, unassigned) [Example 26b, 6-(8-phenyl-6-azaspiro[3.4]octane-6-carbonyl)pyridin-2(1H)-one]"
6,6.63,"O=C(c1cncc(=O)[nH]1)N1CC(c2ccccc2)C2(CCCC2)C1 (single isomer, unassigned) [Example 17a, 6-[4-Phenyl-2-azaspiro[4.4]nonane-2-carbonyl]-1H-pyrazin-2-one]"
<4.52,<4.52,"O=C(c1cncc(=O)[nH]1)N1CC(c2ccc(F)cc2F)C2(CCC2)C1 (single isomer, unassigned) [Example 37b, 6-(8-(2,4-difluorophenyl)-6-azaspiro[3.4]octane-6-carbonyl)pyrazin-2(1H)-one]"
<4.52,<4.52,"O=C(c1cncc(=O)[nH]1)N1CC(c2ccc(Br)cc2)C2(CCC2)C1 (single isomer, unassigned) [Example 29b, 6-(8-(4-bromophenyl)-6-azaspiro[3.4]octane-6-carbonyl)pyrazin-2(1H)-one]"
6.04,6.97,"CC1(C)CN(C(=O)c2cncc(=O)[nH]2)CC1c1ccccc1 (stereo not shown) [Example 8, 6-(3,3-dimethyl-4-phenylpyrrolidine-1-carbonyl)pyrazin-2(1H)-one]"
6.17,7.22,"O=C(c1cncc(=O)[nH]1)N1CC(c2cccc(Cl)c2)C2(CCC2)C1 (single isomer, unassigned) [Example 31a, 6-(8-(3-chlorophenyl)-6-azaspiro[3.4]octane-6-carbonyl)pyrazin-2(1H)-one]"
<4.52,,"O=C(c1cnn[nH]1)N1CC(c2ccccc2)C2(CCC2)C1 (single isomer, unassigned) [Example 14b, 8-phenyl-6-(3H-1,2,3-triazole-4-carbonyl)-6-azaspiro[3.4]octane]"
,<4.52,"O=C(c1noc(=O)[nH]1)N1CC(c2cccc(F)c2)C2(CCC2)C1 (single isomer, unassigned) [Example 49b, 3-(8-(3-fluorophenyl)-6-azaspiro[3.4]octane-6-carbonyl)-1,2,4-oxadiazol-5(4H)-one]"
<4.52,,"O=C(c1cncc(=O)[nH]1)N1CC2(CCC2)C1c1ccccc1 (stereo not shown) [Example 12, 6-(1-phenyl-2-azaspiro[3.3]heptane-2-carbonyl)pyrazin-2(1H)-one]"
